Among the data in PubChem BioAssay (NCI) are TGI values, retold here.

Among the test systems are A498 renal; CCRF-CEM leukemia; DLD-1 colon; DMS 114 small cell lung; HOP-62 NSCLC; K-562 leukemia; KM12 colon; LXFL 529 NSCLC; M19-MEL melanoma; MCF7 breast; SNB-75 CNS; SW-620 colon.
Holding throughout (experiment): growth of human tumour cells (NCI), 48 h

Several values for one entry are separate records, joined by “and”; a condition that tells them apart may be missing. Equal values may be shown once.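 Values below derive from 48-hour exposures of cells grown in 96-well plates, with endpoints linearly interpolated between the two concentrations bracketing the appropriate inhibition level. TGI is the concentration that stops growth completely.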 Where only a bound is given, the exact number is not on record here.

Consider `COC(COC(N)=O)C1=C(N2CC2)C(=O)C(C)=C(N2CC2)C1=O` (centres undefined), for which the TGI in the assay on A498 renal is 267 nM; in the assay on CCRF-CEM leukemia, 24600 nM; with DLD-1 colon, 1030 nM; in the assay with DMS 114 small cell lung, 380 nM; in the assay with HOP-62 NSCLC, 227 nM; in the assay with K-562 leukemia, 1760 nM. Moreover, the TGI was 365 nM with KM12 colon; 672 nM with LXFL 529 NSCLC; 507 nM in the assay with M19-MEL melanoma; 1000 nM with MCF7 breast; 322 nM in the assay on SNB-75 CNS; 703 nM in the assay with SW-620 colon.
For the compound `O=C1[C@H]2ON(c3ccccc3)C(c3ccc([N+](=O)[O-])cc3)[C@H]2C(=O)N1c1ccc(Cc2ccc(N3C(=O)[C@@H]4ON(c5ccccc5)C(c5ccc([N+](=O)[O-])cc5)[C@@H]4C3=O)cc2)cc1` (some centres undefined), the TGI with A498 renal, in the assay on CCRF-CEM leukemia, with DLD-1 colon, in the assay on DMS 114 small cell lung, in the assay with HOP-62 NSCLC and in the assay with K-562 leukemia was above 100000 nM each time. In addition, the TGI in the assay with KM12 colon, in the assay with LXFL 529 NSCLC, in the assay with M19-MEL melanoma, in the assay on SNB-75 CNS and in the assay with SW-620 colon was above 100000 nM throughout.
As to `COC(=O)[C@@H]1c2cc3c(c(O)c2[C@@H](OC2OC(C)C(OC)C(C)(OC)C2OC)C[C@]1(C)O)C(=O)c1c(O)cc2c(c1C3=O)O[C@H]1O[C@]2(C)[C@H](O)[C@@H](N(C)C)[C@@H]1O` (some centres undefined), the TGI is 16.2 nM in the assay with A498 renal; 198 nM and 258 nM with CCRF-CEM leukemia; 258 nM and 436 nM in the assay with DLD-1 colon; 5.21 nM in the assay on DMS 114 small cell lung; 328 nM and 43.5 nM in the assay with HOP-62 NSCLC; 399 nM and 162 nM in the assay on K-562 leukemia. Also, the TGI in the assay with KM12 colon is 42.5 nM and 50.8 nM; in the assay on LXFL 529 NSCLC, 1280 nM; in the assay on M19-MEL melanoma, 15.6 nM and 18.5 nM; with SNB-75 CNS it was 52.2 nM and 12.5 nM; in the assay on SW-620 colon it was 292 nM and 1370 nM.
